Assay [1] relates to NCI-H1975 cells (EGFR T790M L858R). Nature of the assay: EGFR-SOS cellular inhibition assay (CellTiter-Glo, 3D). It is filed as cell-based.
Assay [2] deals with MIA PaCa-2 cells (K-Ras G12C). In words: Ras-SOS cellular growth inhibition assay (CellTiter-Glo, 3D). In kind it is cell-based. How it is done:
MIA PaCa-2 (ATCC CRL-1420) and NCI-H1792 (ATCC CRL-5895) cell lines comprise a G12C mutation can be used to assess Ras cellular signaling in vitro, e.g., in response to a subject compound of the present disclosure. […] Cell culture medium (comprising, for example, MIA PaCa-2 cells) is prepared with DMEM/Ham's F12 (e.g., with stable Glutamine, 10% FCS, and 2.5% Horse Serum. NCI-H1792 culture medium is prepared with RPMI 1640 (e.g., with stable Glutamine) and 10% FCS. A CellTiter-Glo (CTG) luminescent based assay (Promega) is used to assess growth of the cells, as a measurement of the ability of the compounds herein to inhibit Ras signaling in the cells. The cells (e.g., 800-1200 per well) are seeded in their respective culture medium in standard tissue culture-treated ultra-low attachment surface 96-well format plates (Corning Costar #3474). The day after plating, cells are treated with a dilution series (e.g., a 9 point 3-fold dilution series) of the compounds herein (e.g., approximately 125 μl final volume per well). Cell viability can be monitored (e.g., approximately 5 days later) according to the manufacturer's recommended instructions, where the CellTiter-Glo reagent is added (e.g., approximately 65 μl), vigorously mixed, covered, and placed on a plate shaker (e.g., approximately for 20 min) to ensure sufficient cell lysis prior to assessment of luminescent signal. The IC50 values are determined using the four-parameter fit. The resulting IC50 value is a measurement of the ability of the compounds herein to reduce cell growth of Ras-driven cells as representative tumor cells.

Another assay has as its target SOS1 (Homo sapiens (Human), UniProt Q07889). In words: Ras-SOS interaction assay (HTRF). It is filed as biochemical.
Where [3] appears, read: Homo sapiens, 120 h, NCI-H1975, 3D proliferation, about 5 days, read-out: Bio-Cell-Prolif-3D (H1975 IC50).
[4] abbreviates: Homo sapiens, NCI-H1975, EGFR T790M L858R, read-out: IC50 in inhibiting growth of NCI-H1975 cell line.
[5] abbreviates: Homo sapiens, MIA PaCa-2, 120 h, MIA PaCa-2, 3D proliferation, about 5 days, read-out: Bio-Cell-Prolif-3D (MiaPaca2 IC50).
[6] abbreviates: Homo sapiens, MIA PaCa-2, MIA PaCa-2, read-out: IC50 in inhibiting MIA PaCa-2 cell growth.
[7] abbreviates: K-RasG13D utilized, read-out: IC50 inhibition of SOS.
Setting [8] is: K-RasG13D, read-out: IC50 value against SOS1.
Where [9] appears, read: NCI-H1975, 3D proliferation, about 5 days, read-out: Bio-Cell-Prolif-3D (H1975 IC50).
Where [10] appears, read: NCI-H1975, EGFR T790M L858R, read-out: IC50 in inhibiting growth of NCI-H1975 cell line.
The mark [11] stands for this setting: MIA PaCa-2, 3D proliferation, about 5 days, read-out: Bio-Cell-Prolif-3D (MiaPaca2 IC50).

Read-outs that look alike come from different tables or passages of the source.

As to `COc1nc2ncnc(N[C@H](C)c3cccc(C(F)(F)CO)c3)c2cc1N1CCN(C(C)C)CC1` [Compound 205, (R)-2,2-difluoro-2-(3-(1-((6-(4-isopropylpiperazin-1-yl)-7-methoxypyrido[2,3-d]pyrimidin-4-yl)amino)ethyl)phenyl)ethan-1-ol], the IC50 in assay [1] (setting [3]) was at most 1000 nM; in assay [1] (setting [4]) it was below 500 nM; in assay [2] (setting [5]), at most 1000 nM; in assay [2] (setting [6]), below 500 nM; on SOS1 (setting [7]), below 100 nM; at SOS1 (setting [8]), below 50 nM.

As to `Cc1nc(N[C@H](C)c2cccc(C(F)(F)F)c2F)c2cc(N3CCS(=O)(=O)CC3)c(Cl)nc2n1` [Compound 257, (R)-4-(7-chloro-4-((1-(2-fluoro-3-(trtfluoromethyl)phenyl)ethyl)amino)-2-methylpyrido[2,3-d]pyrimidin-6-yl)thiomorpholine 1,1-dioxide], the IC50 in assay [1] (setting [3]) is at most 1000 nM; in assay [1] (setting [4]) it was below 500 nM; in assay [2] (setting [5]), at most 1000 nM; in assay [2] (setting [6]), below 500 nM; on SOS1 (setting [7]), below 100 nM; on SOS1 (setting [8]), below 50 nM.

Regarding `COc1nc2ncnc(N[C@H](C)c3cccc(C(F)F)c3F)c2cc1C1(C#N)CCS(=O)(=O)CC1` [Compound 342, (R)-4-(4-((1-(3-(difluoromethyl)-2-fluorophenyl)ethyl)amino)-7-methoxypyrido[2,3-d]pyrimidin-6-yl)tetrahydro-2H-thiopyran-4-carbonitrile 1,1-dioxide], the IC50 in assay [1] (setting [3]) is at most 1000 nM; in assay [1] (setting [4]) it was below 500 nM; in assay [2] (setting [5]), at most 1000 nM; at SOS1 (setting [7]), below 100 nM; at SOS1 (setting [8]), below 50 nM.

For `COc1nc2nc(C)nc(N[C@H](C)c3cccc(C(F)(F)CO)c3F)c2cc1N1CCN(C(C)C)CC1` [Compound 181, (R)-2,2-difluoro-2-(2-fluoro-3-(1-((6-(4-isopropylpiperazin-1-yl)-7-methoxy-2-methylpyrido[2,3-d]pyrimidin-4-yl)amino)ethyl)phenyl)ethan-1-ol], the IC50 in assay [1] (setting [3]) was at most 1000 nM; in assay [1] (setting [4]), below 500 nM; in assay [2] (setting [5]) it was at most 1000 nM; in assay [2] (setting [6]), below 500 nM; on SOS1 (setting [7]), below 100 nM; on SOS1 (setting [8]), below 50 nM.

As to `Cc1nc(N[C@H](C)c2cccc(C(F)F)c2F)c2cc(N3CCS(=O)(=O)CC3)c(Cl)nc2n1` [Compound 259, (R)-4-(7-chloro-4-((1-(3-(difluoromethyl)-2-fluorophenyl)ethyl)amino)-2-methylpyrido[2,3-d]pyrimidin-6-yl)thiomorpholine 1,1-dioxide], the IC50 is at most 1000 nM in assay [1] (setting [3]); below 500 nM in assay [1] (setting [4]); at most 1000 nM in assay [2] (setting [5]); below 500 nM in assay [2] (setting [6]); below 100 nM on SOS1 (setting [7]); below 50 nM on SOS1 (setting [8]).

Regarding `CCN1CCC(c2cc3c(N[C@H](C)c4cccc(C(F)F)c4F)nc(C)nc3nc2OCCN(C)C)CC1` [Compound 399, (R)-N-(1-(3-(difluoromethyl)-2-fluorophenyl)ethyl)-7-(2-(dimethylamino)ethoxy)-6-(1-ethylpiperidin-4-yl)-2-methylpyrido[2,3-d] pyrimidin-4-amine], the IC50 in assay [1] (setting [3]) was at most 1000 nM; in assay [2] (setting [5]), 1000 to 10000 nM; on SOS1 (setting [7]) it was below 100 nM; at SOS1 (setting [8]), below 50 nM.

For `CCN1CCN(c2cc3c(N[C@H](C)c4cccc(C(F)(F)F)c4C)ncnc3nc2OC)CC1` [Compound 198, (R)-6-(4-ethylpiperazin-1-yl)-7-methoxy-N-(1-(2-methyl-3-(trifluoromethyl)phenyl)ethyl)pyrido[2,3-d]pyrimidin-4-amine], the IC50 in assay [1] (setting [3]) was at most 1000 nM; in assay [1] (setting [4]) it was below 500 nM; in assay [2] (setting [5]) it was at most 1000 nM; in assay [2] (setting [6]), below 500 nM; at SOS1 (setting [7]), below 100 nM; at SOS1 (setting [8]), below 50 nM.

Take `COc1nc2nc(C)nc(N[C@H](C)c3cccc(C(F)F)c3F)c2cc1C1CCN(C)CC1` [Compound 113, (R)-N-(1-(3-(difluoromethyl)-2-fluorophenyl)ethyl)-7-methoxy-2-methyl-6-(1-methylpiperidin-4-yl)pyrido[2,3-d]pyrimidin-4-amine]: the IC50 in assay [1] (setting [3]) was at most 1000 nM; in assay [1] (setting [4]) it was below 500 nM; in assay [2] (setting [5]) it was at most 1000 nM; in assay [2] (setting [6]) it was below 500 nM; at SOS1 (setting [7]), below 100 nM; on SOS1 (setting [8]) it was below 50 nM.

As to `Cc1nc(N[C@H](C)c2cccc(C(F)F)c2F)c2cc(C3(C#N)CC3)c(OCC3COC3)nc2n1` [Compound 299, (R)-1-(4-((1-(3-(difluoromethyl)-2-fluorophenyl)ethyl)anrino)-2-methyl-7-(oxetan-3-ylmethoxy)pyrido[2,3-d]pyrimidin-6-yl)cyclopropane-1-carbonitrile], the IC50 was at most 1000 nM in assay [1] (setting [3]), 1000 to 10000 nM in assay [2] (setting [5]), below 100 nM on SOS1 (setting [7]) and below 50 nM at SOS1 (setting [8]).

Regarding `COc1nc2nc(C)nc(N[C@H](C)c3cccc(C(F)F)c3F)c2cc1[C@@H]1CCCN(C)C1` [Compound 134, N-((R)-1-(3-(difluoromethyl)-2-fluorophenyl)ethyl)-7-methoxy-2-methyl-6-((S)-1-methylpiperidin-3-yl)pyrido[2,3-d]pyrimidin-4-amine], the IC50 is at most 1000 nM in assay [1] (setting [3]); below 500 nM in assay [1] (setting [4]); at most 1000 nM in assay [2] (setting [5]); below 500 nM in assay [2] (setting [6]); below 100 nM at SOS1 (setting [7]); below 50 nM at SOS1 (setting [8]).

Regarding `COc1nc2nc(C)nc(N[C@H](C)c3cccc(C(F)(F)C4CCN(C(C)C)CC4)c3F)c2cc1N1CCN(C(C)C)CC1` [Compound 163, (R)-N-(1-(3-(difluoro(1-isopropylpiperidin-4-yl)methyl)-2-fluorophenyl)ethyl)-6-(4-isopropylpiperazin-1-yl)-7-methoxy-2-methylpyrido[2,3-d]pyrimidin-4-amine], the IC50 in assay [1] (setting [3]) is at most 1000 nM; in assay [1] (setting [4]) it was below 500 nM; in assay [2] (setting [5]), at most 1000 nM; in assay [2] (setting [6]), below 500 nM; on SOS1 (setting [7]), below 100 nM; at SOS1 (setting [8]), below 50 nM.

For `COc1nc2nc(C)nc(N[C@H](C)c3cccc(C(F)F)c3F)c2cc1C1(C#N)CCS(=O)(=O)CC1` [Compound 126, (R)-4-(4-((1-(3-(difluoromethyl)-2-fluorophenyl)ethyl)amino)-7-methoxy-2-methylpyrido[2,3-d]pyrimidin-6-yl)tetrahydro-2H-thiopyran-4-carbonitrile 1,1-dioxide], the IC50 in assay [1] (setting [3]) is at most 1000 nM; in assay [1] (setting [4]) it was below 500 nM; in assay [2] (setting [5]), at most 1000 nM; at SOS1 (setting [7]), below 100 nM; on SOS1 (setting [8]), below 50 nM.

For `COc1nc2nc(C)nc(N[C@H](C)c3cccc(C(F)(F)CN4CCC4)c3F)c2cc1C1(C#N)CC1` [Compound 277, (R)-1-(4-((1-(3-(2-(azetidin-1-yl)-1,1-difluoroethyl)-2-fluorophenyl)ethyl)amino)-7-methoxy-2-methylpyrido [2,3-d]pyrimidin-6-yl)cyclopropane-1-carbonitrile], the IC50 is at most 1000 nM in assay [1] (setting [3]); below 500 nM in assay [1] (setting [4]); at most 1000 nM in assay [2] (setting [5]); below 100 nM on SOS1 (setting [7]); below 50 nM at SOS1 (setting [8]).

For the compound `COc1nc2nc(C)nc(N[C@H](C)c3cccc(C(F)F)c3F)c2cc1C1CCS(=N)(=O)CC1` (stereo partly drawn) [Compound 154, (R)-4-(4-((1-(3-(difluoromethyl)-2-fluorophenyl)ethyl)amino)-7-methoxy-2-methylpyrido[2,3-d]pyrimidin-6-yl)-1-iminohexahydro-1λ6-thiopyran 1-oxide], the IC50 in assay [1] (setting [9]) was at most 1000 nM; in assay [1] (setting [10]), below 500 nM; in assay [2] (setting [11]), at most 1000 nM; in assay [2] (MIA PaCa-2, read-out: IC50 in inhibiting MIA PaCa-2 cell growth), below 500 nM; at SOS1 (setting [7]), below 100 nM; at SOS1 (setting [8]), below 50 nM.

Turning to “((R)-1,4-dioxan-2-yl)(4-(4-(((R)-1-(2-fluoro-3-(trifluoromethyl)-phenyl)ethyl)amino)-7-methoxy-2-methylpyrido[2,3-d]pyrimidin-6-yl)piperazin-1-yl)methanone [Compound 303]”, the IC50 in assay [1] (setting [9]) was at most 1000 nM; in assay [1] (setting [10]) it was below 500 nM; in assay [2] (setting [11]), at most 1000 nM; on SOS1 (setting [7]), below 100 nM; at SOS1 (setting [8]) it was below 50 nM.

The values above are taken from patent US11648254B2 (Kumquat Biosciences Inc., priority 2021, dated 2023).
